# Data: patent US8039454B2, “Macrolide compounds with antibiotic and antineoplastic properties” (Weihe Pharmaceuticals Co. Ltd., priority 2006, dated 2011)
# Tests used:
# Assay in all cases: MIC by standard dilution method in Tryptic Soy Broth
# Assay type in all cases: cell-based
# Escherichia coli = settings: 35° C., 24 h incubation
# Protocol: (§1) To determine minimum inhibitory concentration (MIC) of the WBI-3001, the standard dilution method was used. The tests were conducted at 35° C. and the MICs were determined after 24 h incubation.
# [1] = system: Staphylococcus epidermidis; settings: 35° C., 24 h incubation
# Protocol: as §1
# Pseudomonas aeruginosa = settings: 35° C., 24 h incubation
# Protocol: as §1
# Enterococcus faecalis = settings: 35° C., 24 h incubation
# Protocol: as §1
# Streptococcus pyogenes = settings: 35° C., 24 h incubation
# Protocol: as §1
# [2] = system: S. aureus MSRA (clinical isolates of methicillin-resistant strain); settings: Staphylococcus aureus, 24 h
# Protocol: as §1
compound,measurement,setting,value
CC[C@H]1OC(=O)[C@H](C)[C@@H](O[C@H]2C[C@@](C)(OC)[C@@H](O)[C@H](C)O2)[C@H](C)[C@@H](O[C@@H]2O[C@H](C)C[C@H](N(C)C)[C@H]2O)[C@](C)(O)C[C@@H](C)C(=O)[C@H](C)[C@@H](O)[C@]1(C)O [Erythromycin],MIC,Escherichia coli,1 µg/mL
same,MIC,[1],0.25 µg/mL
same,MIC,Pseudomonas aeruginosa,> 32 µg/mL
same,MIC,Enterococcus faecalis,> 32 µg/mL
same,MIC,Streptococcus pyogenes,0.03 µg/mL
same,MIC,[2],> 32 µg/mL
